In patent publication EP1054888B1 (priority 1998, dated 1999):
In brackets after ≈: the same amount, converted by molar mass.

How the values were obtained:
Test in all cases: microbe, parasite or virus in culture
Type in all cases: cell-based
[1] = tested on: Sclerotinia sclerotiorum; conditions: read-out: MIC (Minimum Inhibitory Concentration) SCLESC
[2] = tested on: Monilina fructigena; conditions: read-out: MIC (Minimum Inhibitory Concentration) MONIFG
[3] = tested on: Botrytis cinerea; conditions: read-out: MIC (Minimum Inhibitory Concentration) BOTRCI
[4] = tested on: Leptosphaeria nodorum; conditions: Parastagonospora nodorum, read-out: MIC (Minimum Inhibitory Concentration) LEPTNO
[5] = tested on: Mycosphaerella ligulicola; conditions: Stagonosporopsis ligulicola, read-out: MIC (Minimum Inhibitory Concentration) MYCOLG
[6] = tested on: Phytophthora infestans; conditions: read-out: MIC (Minimum Inhibitory Concentration) PHYTIN
[7] = tested on: Alternaria solani; conditions: read-out: MIC (Minimum Inhibitory Concentration) ALTESO
[8] = tested on: Magnaporthe grisea f. sp. oryzae; conditions: Pyricularia oryzae, read-out: MIC (Minimum Inhibitory Concentration) PYRIOR, Table II; total inhibition of mycelial growth, V8 juice nutrient solution, 6-12 days at 18-25°C, visual inspection
[9] = tested on: Pyrenophora teres; conditions: read-out: MIC (Minimum Inhibitory Concentration) PYRNTE
[10] = tested on: Rhizoctonia solani; conditions: read-out: MIC (Minimum Inhibitory Concentration) RHIZSO

Row | SMILES | MIC [1] [µg/mL] | MIC [2] [µg/mL] | MIC [3] [µg/mL] | MIC [4] [µg/mL] | MIC [5] [µg/mL] | MIC [6] [µg/mL] | MIC [7] [µg/mL] | MIC [8] [µg/mL] | MIC [9] [µg/mL] | MIC [10] [µg/mL]
1 | Fc1cccc(Cl)c1-c1c(Cl)nc2ncnn2c1C1CCCO1 (centres unmarked) [Example 11] | 25 (≈ 70.8 µM) | 3.13 (≈ 8.86 µM) | 1.56 (≈ 4.42 µM) | 1.56 (≈ 4.42 µM) | 12.5 (≈ 35.4 µM) | – | – | – | – | –
2 | FC(F)(F)Oc1ccccc1-c1c(Cl)nc2ncnn2c1C1CCCO1 (centres unmarked) [Example 16] | > 100 | > 100 | 25 (≈ 65 µM) | > 100 | > 100 | – | – | – | – | –
3 | CCCCc1c(-c2c(F)cccc2Cl)c(Cl)nc2ncnn12 [Example 17] | 0.78 (≈ 2.3 µM) | 3.13 (≈ 9.23 µM) | 0.2 (≈ 0.59 µM) | 0.78 (≈ 2.3 µM) | 0.78 (≈ 2.3 µM) | – | – | – | – | –
4 | CCCCCc1c(-c2c(F)cccc2Cl)c(Cl)nc2ncnn12 [Example 18] | 0.78 (≈ 2.21 µM) | 3.13 (≈ 8.86 µM) | 0.2 (≈ 0.566 µM) | 1.56 (≈ 4.42 µM) | 0.78 (≈ 2.21 µM) | – | – | – | – | –
5 | CCc1c(-c2c(F)cccc2Cl)c(Cl)nc2ncnn12 [Example 24] | – | – | 6.25 (≈ 20.1 µM) | 3.13 (≈ 10.1 µM) | – | > 100 | 12.5 (≈ 40.2 µM) | < 0.05 | > 100 | 6.25 (≈ 20.1 µM)
6 | CCCc1c(-c2c(F)cccc2Cl)c(Cl)nc2ncnn12 [Example 25] | – | – | 0.78 (≈ 2.4 µM) | > 100 | – | 12.5 (≈ 38.4 µM) | 1.56 (≈ 4.8 µM) | 0.1 (≈ 0.308 µM) | 3.13 (≈ 9.63 µM) | 1.56 (≈ 4.8 µM)
7 | CC(C)Cc1c(-c2c(F)cccc2Cl)c(Cl)nc2ncnn12 [Example 26] | – | – | 0.2 (≈ 0.59 µM) | 0.39 (≈ 1.15 µM) | – | > 100 | 0.78 (≈ 2.3 µM) | < 0.05 | 3.13 (≈ 9.23 µM) | 0.78 (≈ 2.3 µM)
8 | CC(C)c1c(-c2c(F)cccc2Cl)c(Cl)nc2ncnn12 [Example 27] | – | – | 0.78 (≈ 2.4 µM) | 1.56 (≈ 4.8 µM) | – | > 100 | > 100 | 0.2 (≈ 0.615 µM) | > 100 | 0.39 (≈ 1.2 µM)
9 | CCC(C)c1c(-c2c(F)cccc2Cl)c(Cl)nc2ncnn12 (centres unmarked) [Example 28] | – | – | 3.13 (≈ 9.23 µM) | > 100 | – | > 100 | 6.25 (≈ 18.4 µM) | 1.56 (≈ 4.6 µM) | 6.25 (≈ 18.4 µM) | 0.78 (≈ 2.3 µM)
10 | Fc1cccc(Cl)c1-c1c(Cl)nc2ncnn2c1C1CCCC1 [Example 29] | – | – | 1.56 (≈ 4.44 µM) | 0.39 (≈ 1.11 µM) | – | > 100 | 0.78 (≈ 2.22 µM) | < 0.05 | 0.78 (≈ 2.22 µM) | 0.78 (≈ 2.22 µM)
11 | Fc1cccc(Cl)c1-c1c(Cl)nc2ncnn2c1C1CCCCC1 [Example 30] | – | – | < 0.05 | 25 (≈ 68.4 µM) | – | > 100 | < 0.05 | < 0.05 | 0.2 (≈ 0.548 µM) | > 100
12 | Fc1cccc(Cl)c1-c1c(Cl)nc2ncnn2c1CCC(F)(F)F [Example 32] | – | – | 0.78 (≈ 2.06 µM) | > 100 | – | 50 (≈ 132 µM) | 3.13 (≈ 8.26 µM) | 0.2 (≈ 0.528 µM) | 12.5 (≈ 33 µM) | 6.25 (≈ 16.5 µM)
13 | Cc1cccc(C)c1-c1c(-c2c(F)cccc2Cl)c(Cl)nc2ncnn12 [Example 33] | – | – | > 100 | > 100 | – | 6.25 (≈ 16.1 µM) | > 100 | 12.5 (≈ 32.3 µM) | > 100 | > 100
14 | Cc1cccc(-c2c(-c3c(F)cccc3Cl)c(Cl)nc3ncnn23)c1 [Example 34] | – | – | 6.25 (≈ 16.7 µM) | 25 (≈ 67 µM) | – | 50 (≈ 134 µM) | 1.56 (≈ 4.18 µM) | 0.78 (≈ 2.09 µM) | > 100 | > 100
15 | Cc1ccccc1-c1c(-c2c(F)cccc2Cl)c(Cl)nc2ncnn12 [Example 35] | – | – | 3.13 (≈ 8.39 µM) | 6.25 (≈ 16.7 µM) | – | 25 (≈ 67 µM) | 3.13 (≈ 8.39 µM) | 0.78 (≈ 2.09 µM) | > 100 | 3.13 (≈ 8.39 µM)
16 | O=C1CCCC(=O)C1c1c(-c2c(F)cccc2Cl)c(Cl)nc2ncnn12 [Example 36] | – | – | > 100 | > 100 | – | 12.5 (≈ 31.8 µM) | > 100 | > 100 | > 100 | > 100
17 | COc1nc2ncnn2c(C2CCCCC2)c1-c1c(F)cccc1Cl [Example 38] | – | – | > 100 | > 100 | – | > 100 | 100 (≈ 277 µM) | 0.78 (≈ 2.16 µM) | > 100 | > 100
18 | Fc1cccc(F)c1-c1c(Cl)nc2ncnn2c1C1CCCCC1 [Example 40] | – | – | 0.39 (≈ 1.12 µM) | > 100 | – | > 100 | 0.1 (≈ 0.287 µM) | 0.39 (≈ 1.12 µM) | 3.13 (≈ 8.97 µM) | > 100
19 | Fc1ccc(-c2c(-c3c(F)cccc3Cl)c(Cl)nc3ncnn23)cc1 [Example 41] | – | – | 3.13 (≈ 8.3 µM) | > 100 | – | > 100 | 1.56 (≈ 4.14 µM) | 0.1 (≈ 0.265 µM) | 3.13 (≈ 8.3 µM) | 3.13 (≈ 8.3 µM)
20 | Fc1ccccc1-c1c(Cl)nc2ncnn2c1C1CCCCC1 [Example 42] | – | – | 1.56 (≈ 4.72 µM) | 0.39 (≈ 1.18 µM) | – | > 100 | 0.39 (≈ 1.18 µM) | 0.39 (≈ 1.18 µM) | 3.13 (≈ 9.46 µM) | > 100
21 | Clc1ccccc1-c1c(Cl)nc2ncnn2c1C1CCCCC1 [Example 43] | – | – | > 100 | 1.56 (≈ 4.49 µM) | – | > 100 | 1.56 (≈ 4.49 µM) | 0.39 (≈ 1.12 µM) | > 100 | > 100
22 | Fc1cc(F)c(-c2c(Cl)nc3ncnn3c2C2CCCCC2)c(F)c1 [Example 44] | – | – | < 0.05 | 0.2 (≈ 0.545 µM) | – | > 100 | < 0.05 | < 0.05 | 0.2 (≈ 0.545 µM) | 0.78 (≈ 2.13 µM)
23 | [N-]=[N+]=Nc1nc2ncnn2c(C2CCCCC2)c1-c1c(F)cccc1Cl [Example 45] | – | – | > 100 | > 100 | – | > 100 | 100 (≈ 269 µM) | 12.5 (≈ 33.6 µM) | > 100 | > 100
24 | COc1nc2ncnn2c(C2CCCCC2)c1-c1ccccc1F [Example 50] | – | – | > 100 | > 100 | – | > 100 | > 100 | 25 (≈ 76.6 µM) | > 100 | > 100
25 | Fc1c(F)c(F)c(-c2c(Cl)nc3ncnn3c2C2CCCCC2)c(F)c1F [Example 101, 5-chloro-7-cyclohexyl-6-(pentafluorophenyl)-1,2,4-triazolo[1,5a]pyrimidine] | – | – | 0.78 (≈ 1.94 µM) | 0.2 (≈ 0.497 µM) | – | > 100 | 0.2 (≈ 0.497 µM) | 0.2 (≈ 0.497 µM) | 3.13 (≈ 7.77 µM) | > 100
